Source: US6656888B1, “Biodegradable two-cycle engine oil compositions, grease compositions, and ester base stocks use therein” (Cognis Corporation, priority 1992, dated 2003)

Experiments:
Type in all cases: physicochemical
Flash Point, ASTM D-92 = experiment: Flash Point, ASTM D-92
Pour Point, ASTM D-97 = experiment: Pour Point, ASTM D-97
[1] = Kinematic viscosity, ASTM D-445

trimethylolpropane trioleate [EMERY® 2964]
Flash Point, ° C. (Flash Point, ASTM D-92): 312 °C | Pour Point, ° C. (Pour Point, ASTM D-97): −40 °C | Viscosity, cSt 40° C. ([1]; 40° C.): 48.43 cSt | Viscosity, cSt 100° C. ([1]; 100° C.): 10.17 cSt
